This is an account of results in PubChem BioAssay (NCI).

Among the test systems are RPMI-8226 leukemia; LOX IMVI melanoma; OVCAR-3 ovarian; SF-539 CNS; ACHN renal; HCT-116 colon; NCI-H460 lung; NCI-H522 lung; EKVX NSCLC; NCI-H23 lung.
Holding throughout (assay): NCI tumour cell line growth inhibition, 48 h

Molecules are shown by their SMILES.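 Where inhibition never reached the appropriate level, the endpoint shown equals the highest concentration tested. Otherwise, values were interpolated linearly from a five-concentration, 48-hour dose response in 96-well plates. GI50 = concentration required for 50% inhibition of growth. TGI denotes the concentration required for complete inhibition of growth.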

As for `CN1CCCN(C(c2ccccc2)c2ccc(Br)cc2)CC1` (stereo not given), the GI50 was 9.04 µM in the assay with RPMI-8226 leukemia; 2.85 µM in the assay with LOX IMVI melanoma; 2.83 µM in the assay on OVCAR-3 ovarian; 3.09 µM in the assay with SF-539 CNS; 3.62 µM in the assay with ACHN renal; 1.84 µM with HCT-116 colon. Besides, the GI50 with NCI-H460 lung is 6.55 µM; in the assay with NCI-H522 lung it was 3.62 µM; in the assay with EKVX NSCLC, 4.94 µM; in the assay with NCI-H23 lung, 10.3 µM. Also, the TGI stood at 36.2 µM in the assay with RPMI-8226 leukemia; 10.1 µM in the assay with LOX IMVI melanoma; 10.2 µM with OVCAR-3 ovarian; 11.1 µM in the assay on SF-539 CNS; 14.1 µM in the assay with ACHN renal; 4.23 µM in the assay with HCT-116 colon. Moreover, the TGI with NCI-H460 lung came out at 19 µM; in the assay on NCI-H522 lung, 13.9 µM; with EKVX NSCLC it was 19.6 µM; with NCI-H23 lung it was 22.1 µM.
On to `CC([O-])C(=O)[O-].NCC1CCC1CN.[Pt+4]` (stereo not given), for which the GI50 in the assay with RPMI-8226 leukemia was above 10 µM; in the assay with LOX IMVI melanoma, above 10 µM; in the assay with OVCAR-3 ovarian, above 10 µM; with SF-539 CNS, above 10 µM; with ACHN renal it was 6.19 µM; in the assay on HCT-116 colon it was above 10 µM. Besides, the GI50 in the assay with NCI-H460 lung, in the assay with NCI-H522 lung, in the assay with EKVX NSCLC and with NCI-H23 lung was above 10 µM in each case. The TGI in the assay with RPMI-8226 leukemia, in the assay with LOX IMVI melanoma, in the assay with OVCAR-3 ovarian, with SF-539 CNS, in the assay with ACHN renal and in the assay on HCT-116 colon was above 10 µM throughout. The TGI in the assay with NCI-H460 lung, in the assay with NCI-H522 lung, in the assay on EKVX NSCLC and in the assay with NCI-H23 lung was above 10 µM each time.
Take `CC1(C)OC(=O)C(=C2CC(c3ccccc3)c3ccccc32)C(=O)O1` (stereo not given): the TGI with RPMI-8226 leukemia, with LOX IMVI melanoma, in the assay on OVCAR-3 ovarian, with SF-539 CNS, in the assay on ACHN renal and in the assay on HCT-116 colon was above 100 µM each time. For the same compound, the TGI in the assay with NCI-H460 lung, in the assay with NCI-H522 lung, in the assay with EKVX NSCLC and in the assay with NCI-H23 lung was above 100 µM in each case.
As for `O=C([O-])c1ccccc1Nc1ccccc1[O-].[Ni+3].[OH3+].[OH3+].[OH3+]`, the GI50 in the assay on RPMI-8226 leukemia, with LOX IMVI melanoma, in the assay with OVCAR-3 ovarian, with SF-539 CNS, in the assay with ACHN renal and in the assay with HCT-116 colon was above 100 µM throughout. Further, the GI50 in the assay on NCI-H460 lung, in the assay with NCI-H522 lung, in the assay on EKVX NSCLC and in the assay with NCI-H23 lung was above 100 µM throughout. In addition, the TGI in the assay with RPMI-8226 leukemia, in the assay on LOX IMVI melanoma, with OVCAR-3 ovarian, in the assay on SF-539 CNS, in the assay with ACHN renal and with HCT-116 colon was above 100 µM in each case. Also, the TGI with NCI-H460 lung, in the assay with NCI-H522 lung, in the assay on EKVX NSCLC and in the assay with NCI-H23 lung was above 100 µM in each case.
In the case of `Cc1nn(-c2ccc(Br)cc2)c(C)c1CC(=O)c1cc(O)ccc1O`, the GI50 in the assay with RPMI-8226 leukemia is 8.21 µM; in the assay with LOX IMVI melanoma, 4.13 µM; in the assay on OVCAR-3 ovarian it was 12.9 µM; with SF-539 CNS it was 11.5 µM; in the assay with ACHN renal it was 9.16 µM; in the assay on HCT-116 colon, 12.6 µM. Besides, the GI50 was 8.34 µM in the assay on NCI-H460 lung, 16 µM in the assay on NCI-H522 lung, 21.3 µM with EKVX NSCLC and 10.9 µM with NCI-H23 lung. Further, the TGI is above 50 µM in the assay on RPMI-8226 leukemia; 13.9 µM with LOX IMVI melanoma; 38.8 µM in the assay with OVCAR-3 ovarian; 28 µM with SF-539 CNS; 24.6 µM in the assay on ACHN renal; above 50 µM with HCT-116 colon. Further, the TGI in the assay on NCI-H460 lung is 19.3 µM; in the assay on NCI-H522 lung it was above 50 µM; in the assay with EKVX NSCLC, above 50 µM; with NCI-H23 lung, 35.7 µM.
On to `CCCCCCCCCC(CCCC(O)CC(=O)O)OC1OC(COC2OC(C)C(O)C(O)C2O)C(O)C(O)C1OC1OC(CO)C(O)C(O)C1OC1OC(C)C(O)C(O)C1O` (stereo not given), for which the GI50 in the assay with RPMI-8226 leukemia, in the assay with LOX IMVI melanoma, with OVCAR-3 ovarian, in the assay with SF-539 CNS, in the assay with ACHN renal and with HCT-116 colon was above 40 µM in each case. Besides, the GI50 in the assay with NCI-H460 lung, in the assay on NCI-H522 lung, with EKVX NSCLC and in the assay on NCI-H23 lung was above 40 µM each time. The TGI with RPMI-8226 leukemia, in the assay with LOX IMVI melanoma, in the assay with OVCAR-3 ovarian, in the assay on SF-539 CNS, in the assay with ACHN renal and with HCT-116 colon was above 40 µM throughout. For the same compound, the TGI in the assay with NCI-H460 lung, in the assay with NCI-H522 lung, in the assay on EKVX NSCLC and in the assay with NCI-H23 lung was above 40 µM each time.
For `C=C(CN1CCN(c2cccc(F)c2)CC1)c1ccc(C(=O)Nc2ccccc2N)cc1`, the GI50 is 0.429 µM in the assay on RPMI-8226 leukemia; 1.67 µM in the assay on LOX IMVI melanoma; 1.94 µM in the assay on OVCAR-3 ovarian; 1.45 µM with SF-539 CNS; 4.59 µM in the assay with ACHN renal; 1.08 µM in the assay on HCT-116 colon. Moreover, the GI50 with NCI-H460 lung is 3.95 µM; in the assay with NCI-H522 lung, 0.848 µM; in the assay on EKVX NSCLC, 6.68 µM; in the assay on NCI-H23 lung it was 1.77 µM. Also, the TGI with RPMI-8226 leukemia came out at 2.89 µM; in the assay with LOX IMVI melanoma it was 13.1 µM; in the assay on OVCAR-3 ovarian it was 17.7 µM; in the assay with SF-539 CNS it was 5.77 µM; with ACHN renal, 90.7 µM; in the assay on HCT-116 colon, 12.5 µM. For the same compound, the TGI in the assay on NCI-H460 lung was above 100 µM; in the assay with NCI-H522 lung it was 3.88 µM; with EKVX NSCLC it was above 100 µM; with NCI-H23 lung, 17.3 µM.
